Results from US20260297105A1, “RAF-MEK PROTEIN COMPLEX MODULATORS AND METHODS OF USE THEREOF” (GANDEEVA THERAPEUTICS, INC., priority 2023, published 2026).

Legend:
BRAF-MEK1 = assay: BRAF-MEK TR-FRET assay, stabilization of MEK1 and BRAF interaction; type: binding; details: 4 nM BRAF, 10 nM MEK, 100 μM ATP; 1 hr at 25° C.; 60 min; read-out: BRAF-MEK TR-FRET Assay (EC50, fold stabilization)
Source text: (§1) Protein expression and purification: BRAF (445-723) with N-term His-tag and C-term StrepII tag was expressed using the Expi293 system (ThermoFisher) and purified using Strep-Tactin® XT-Superflow (IBA) chromatography. ERK1 (full-length) with N-term His-tag was expressed in Rosetta DE3 cells (Millipore) and purified using HisTrap HP (Cytiva) and Superdex 200 (Cytiva) column chromatography. Full-length MEK1 for TR-FRET assays with N-term His-tag was expressed in BL21DE3 cells (ThermoFisher) and purified using HisTrap HP (Cytiva) and Superdex 200 (Cytiva) column chromatography.
Efficacy of exemplary compounds in stabilization of MEK1 and BRAF interaction: Compound stabilization of BRAF-MEK interaction was evaluated using TR-FRET (Time Resolved Fluorescence Energy Transfer). The FRET assay consisted of His-tagged MEK1 (produced in-house), GST-tagged BRAF (SignalChem, B08-11G), Anti His-Tb Cryptate donor, and Anti GST-XL665 acceptor fluorophores (PerkinElmer) to generate FRET signal upon BRAF-MEK1 binding. Compounds were prepared from DMSO stocks in assay buffer (50 mM Tris pH 7.5, 150 mM NaCl, 1 mM DTT, 0.05% Tween-20, 5 mM MgCl2, and 100 μM ATP) and incubated with 4 nM BRAF and 10 nM MEK for 1 hr at 25° C. 1 ng Anti His-Tb Cryptate/20 ng Anti GST-XL665 premix was then added and incubated for 1 hr at 25° C. TR-FRET was measured using Cytation5 microplate reader (Agilent) using Ex/Em=340/620 nm and Ex/Em=340/665 nm to determine the FRET ratio. Fold stabilization was calculated as FRET signal of treated well/DMSO control. Fold stabilization as a function of compound concentration from 2 replicate wells was fit with a 4-parameter logistic curve equation using GraphPad Prism or CDD Vault to derive EC50 values.
(§2) In this table, for the BRAF ADP Glo kinase assay, “A” indicates IC50 of less than 5 nM; “B” indicates IC50 of between 5 nM to 50 nM; and “C” indicates IC50 of between 50 nM to 500 nM. “D” indicates IC50 of greater than 500 nM. For the BRAF-MEK TR-FRET assay, “A” indicates EC50 of less than 50 nM; “B” indicates EC50 of between 50 nM to 200 nM; and “C” indicates EC50 of between 200 nM to 1 μM. “D′” indicates EC50 of greater than 1 μM. For the AlphaLisa P-ERK assay, “A” indicates IC50 of less than 1 nM; “B” indicates IC50 of between 1 nM to 10 nM; and “C” indicates IC50 of between 10 nM to 100 nM. “D” indicates IC50 of greater than 100 nM. For the cell viability assay, “A” indicates IC50 of less than 1 nM; “B” indicates IC50 of between 1 nM to 10 nM; and “C” indicates IC50 of between 10 nM to 100 nM. “D” indicates IC50 of greater than 100 nM.

MEK1 = biological target: T1, MEK1 (Homo sapiens, UniProt Q02750); assay: MEK1 kinase cascade assay (ADP-Glo), inhibition of MEK1 kinase activity; type: biochemical; details: 25 nM BRAF, 6.25 nM MEK1, 0.5 μM ERK, 1 mM ATP; 20 min preincubation, 1 hr at 25° C.; read-out: BRAF ADP Glo kinase assay V3 (IC50)
T1 construct: purchased SignalChem M02-14H
T1 sequence (Q02750 whole entry): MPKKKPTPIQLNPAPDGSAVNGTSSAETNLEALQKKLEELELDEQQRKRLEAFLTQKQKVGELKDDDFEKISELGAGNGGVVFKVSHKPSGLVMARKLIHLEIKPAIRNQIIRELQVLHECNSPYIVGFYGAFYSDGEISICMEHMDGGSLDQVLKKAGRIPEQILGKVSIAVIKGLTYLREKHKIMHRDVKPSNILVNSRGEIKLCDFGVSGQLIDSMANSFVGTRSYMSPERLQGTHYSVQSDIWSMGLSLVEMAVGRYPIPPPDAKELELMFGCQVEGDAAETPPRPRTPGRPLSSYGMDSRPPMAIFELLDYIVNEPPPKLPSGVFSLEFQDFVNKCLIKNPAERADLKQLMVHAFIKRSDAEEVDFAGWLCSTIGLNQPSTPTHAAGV
T1 sequence (P15056 445-723 partner limits assumed): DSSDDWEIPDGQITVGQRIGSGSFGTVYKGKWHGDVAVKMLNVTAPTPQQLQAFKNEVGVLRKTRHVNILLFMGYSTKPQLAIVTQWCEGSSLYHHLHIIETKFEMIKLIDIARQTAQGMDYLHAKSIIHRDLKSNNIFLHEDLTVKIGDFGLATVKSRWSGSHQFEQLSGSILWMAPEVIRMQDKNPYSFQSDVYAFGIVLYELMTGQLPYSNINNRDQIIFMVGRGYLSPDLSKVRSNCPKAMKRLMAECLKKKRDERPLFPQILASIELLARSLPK
Source text: as §1
Efficacy of exemplary compounds in inhibition of MEK1 kinase activity: The effect of compound MEK1 inhibition was evaluated using an ADP detection system for kinases, such as the ADP-Glo assay (Promega). The MEK1 kinase cascade assay consisted of 9 μL reaction volumes in 384-well white, opaque Optiplates (PerkinElmer). Compounds were prepared from DMSO stocks in assay buffer (10 mM HEPES pH 7.5, 5 mM MgCl2, 2 mM CHAPS, and 1 mM DTT) and preincubated with 25 nM BRAF for 20 mins at 25° C. prior to addition of 6.25 nM MEK1/0.5 μM ERK/1 mM ATP premix to initiate the kinase reaction. Both BRAF and ERK1 were produced in-house, and MEK1 was purchased from SignalChem (M02-14H). DMSO was kept constant at a final concentration of 1%. After a 1 hr incubation at 25° C., conversion of ATP to ADP was detected using ADP-Glo™ reagents according to the manufacturer's protocol. Luminescence was measured using a CLARIOstar microplate reader (BMG). Percent (%) Inhibition was calculated by normalizing to DMSO control (max) and 1 μM Trametinib (min). % inhibition as a function of compound concentration from 2 replicate wells was fit with a 4-parameter logistic curve equation using GraphPad Prism or CDD Vault to derive IC50 values.
as §2

SMILES | EC50 (BRAF-MEK1) [nM] | IC50 (MEK1) [nM]
CNS(=O)(=O)Nc1nccc(CN2C(=O)Oc3cc(Oc4cccnn4)cnc3[C@H]2C)c1F (stereo in doubt) [Compound 193, 3-{[3-fluoro-2-(methylaminosulfonylamino)-4 pyridyl]methyl}-4-methyl-7-(3-pyridazinyloxy)-3,4-dihydro-2H-1-oxa-3,5 diazanaphthalen-2-one] | < 50 | –
CNS(=O)(=O)Nc1nccc(CN2C(=O)Oc3cc(Oc4nccnn4)cnc3[C@@H]2C)c1F (stereo in doubt) [Compound 199, 3-{[3-fluoro-2-(methylaminosulfonylamino)-4-pyridyl]methyl}-4-methyl-7-(1,2,4-triazin-3-yloxy)-3,4-dihydro-2H-1-oxa-3,5-diazanaphthalen-2-one] | 50 to 200 | –
O=C1Oc2cc(Oc3cccnn3)ccc2CN1Cc1cccc(N2CCOC2=O)c1F [Compound 26, 3-{[2-fluoro-3-(2-oxo-1,3-oxazolidin-3-yl)phenyl]methyl}-7-(3-pyridazinyloxy)-3,4-dihydro-2H-1,3-benzoxazin-2-one] | – | 50 to 500
CN(C)C(=O)Oc1ccc2c(c1)OC(=O)N(Cc1cccc(N3CCOC3=O)c1F)C2 [Compound 27, dimethylamino-3-{[2-fluoro-3-(2-oxo-1,3-oxazolidin-3-yl)phenyl]methyl}-2-oxo-3,4-dihydro-2H-1,3-benzoxazin-7-ylformylate] | – | > 500
CNS(=O)(=O)Cc1cccc(CN2Cc3ccc(OC(=O)N(C)C)cc3OC2=O)c1F [Compound 45, 3-(2-fluoro-3-((N-methylsulfamoyl)methyl)benzyl)-2-oxo-3,4-dihydro-2H-benzo[e][1,3]oxazin-7-yl dimethylcarbamate] | – | > 500
CNS(=O)(=O)Cc1cccc(CN2C(=O)Oc3cc(Oc4cccnn4)ccc3C23COC3)c1F [Compound 46, 1-(2-fluoro-3-{[2-oxo-7-(pyridazin-3-yloxy)-2,3-dihydrospiro[1,3-benzoxazine-4,3′-oxetan]-3-yl]methyl}phenyl)-N-methylmethanesulfonamide] | – | 50 to 500
CNS(=O)(=O)Cc1cccc(CN2C(=O)Oc3cc(OC(=O)N(C)C)ccc3C23COC3)c1F [Compound 47, 3-({2-fluoro-3-[(methylsulfamoyl)methyl]phenyl}methyl)-2-oxo-2,3-dihydrospiro[1,3-benzoxazine-4,3′-oxetan]-7-yl N,N-dimethylcarbamate] | – | 50 to 500
CNS(=O)(=O)Nc1cccc(CN2C(=O)Oc3cc(Oc4ccccn4)ccc3C23COC3)c1F [Compound 50, 3-({2-fluoro-3-[(methylsulfamoyl)amino]phenyl}methyl)-7-(pyridin-2-yloxy)-2,3-dihydrospiro[1,3-benzoxazine-4,3′-oxetan]-2-one] | – | 5 to 50
O=C1Oc2cc(Oc3cccnc3)ccc2CN1Cc1cccc(NS(=O)(=O)C2CC2)c1F [Compound 60, (cyclopropylsulfonyl)(2-fluoro-3-{[2-oxo-7-(3-pyridyloxy)-3,4-dihydro-2H-1,3-benzoxazin-3-yl]methyl}phenyl)amine] | – | 50 to 500
CNS(=O)(=O)Nc1cccc(CN2Cc3ccc(Oc4cccnc4)cc3OC2=O)c1F [Compound 61, 3-{[2-fluoro-3-(methylaminosulfonylamino)phenyl]methyl}-7-(3-pyridyloxy)-3,4-dihydro-2H-1,3-benzoxazin-2-one] | – | 5 to 50
O=C1Oc2cc(Oc3cnccn3)ccc2C2(COC2)N1Cc1cccc(NS(=O)(=O)C2CC2)c1F [Compound 69, N-(2-fluoro-3-{[2-oxo-7-(pyrazin-2-yloxy)-2,3-dihydrospiro[1,3-benzoxazine-4,3′-oxetan]-3-yl]methyl}phenyl)cyclopropanesulfonamide] | – | 50 to 500
CNS(=O)(=O)Nc1cccc(CN2C(=O)Oc3cc(Oc4cnccn4)ccc3C23COC3)c1F [Compound 70, 3-({2-fluoro-3-[(methylsulfamoyl)amino]phenyl}methyl)-7-(pyrazin-2-yloxy)-2,3-dihydrospiro[1,3-benzoxazine-4,3′-oxetan]-2-one] | – | 50 to 500
CNS(=O)(=O)Nc1cccc(CN2C(=O)Oc3c(ccc(Oc4ncccn4)c3F)C23COC3)c1F [Compound 88] | – | > 500
CNS(=O)(=O)Nc1cccc(CN2Cc3ccc(OC4COC4)cc3OC2=O)c1F [Compound 98, 3-{[2-fluoro-3-(methylaminosulfonylamino)phenyl]methyl}-7-(3-oxetanyloxy)-3,4-dihydro-2H-1,3-benzoxazin-2-one] | – | > 500
CNS(=O)(=O)Nc1cccc(CN2Cc3cc(C)c(Oc4ncccn4)cc3OC2=O)c1F [Compound 111, 3-({2-fluoro-3-[(methylsulfamoyl)amino]phenyl}methyl)-6-methyl-7-(pyrimidin-2-yloxy)-3,4-dihydro-2H-1,3-benzoxazin-2-one] | – | 5 to 50
CNS(=O)(=O)Nc1cccc(CN2Cc3ccc(Oc4ncccn4)cc3OC2=O)c1F [Compound 157, 3-({2-fluoro-3-[(methylsulfamoyl)amino]phenyl}methyl)-7-(pyrimidin-2-yloxy)-3,4-dihydro-2H-1,3-benzoxazin-2-one] | – | 5 to 50
O=C1Oc2cc(Oc3ncco3)c(F)cc2C2(COC2)N1Cc1ccnc(NS(=O)(=O)C2CC2)c1F [Compound 172, N-(3-fluoro-4-((6-fluoro-7-(oxazol-2-yloxy)-2-oxospiro[benzo[e][1,3]oxazine-4,3′-oxetan]-3(2H)-yl)methyl)pyridin-2-yl)cyclopropanesulfonamide] | – | 50 to 500
CNS(=O)(=O)Nc1nccc(CN2C(=O)Oc3cc(Oc4ncc(C)o4)ccc3C23CCC3)c1F [Compound 180, 3-{[3-fluoro-2-(methylaminosulfonylamino)-4-pyridyl]methyl}-7-(5-methyl-1,3-oxazol-2-yloxy)-2H,3H-spiro[1,3-benzoxazine-4,1′-cyclobutan]-2-one] | – | 5 to 50
CNS(=O)(=O)Nc1nccc(CN2C(=O)Oc3cc(Oc4nc(C)co4)ccc3C23CCC3)c1F [Compound 182, 3-{[3-fluoro-2-(methylaminosulfonylamino)-4-pyridyl]methyl}-7-(4-methyl-1,3-oxazol-2-yloxy)-2H,3H-spiro[1,3-benzoxazine-4,1′-cyclobutan]-2-one] | – | 5 to 50
CNS(=O)(=O)Nc1cc(F)cc(CN2C(=O)Oc3cc(Oc4ncco4)ccc3C23CCC3)c1F [Compound 195, 3-{[2,5-difluoro-3-(methylaminosulfonylamino)phenyl]methyl}-7-(1,3-oxazol-2-yloxy)-2H,3H-spiro[1,3-benzoxazine-4,1′-cyclobutan]-2-one] | – | 50 to 500
CNS(=O)(=O)Nc1ccc(F)c(CN2C(=O)Oc3cc(Oc4cccnn4)ccc3C23CCC3)c1F [Compound 197, 3-{[2,6-difluoro-3-(methylaminosulfonylamino)phenyl]methyl}-7-(3-pyridazinyloxy)-2H,3H-spiro[1,3-benzoxazine-4,1′-cyclobutan]-2-one] | – | 50 to 500
